Six molecules from patent US20140193455A1, “PHARMACEUTICAL COMPOSITION FOR PREVENTION OR TREATMENT OF STEROID-INDUCED DIABETES AND HEALTH FUNCTIONAL FOOD” (priority 2013, published 2014) can be followed below.

The assay deals with INS-1 cells. The experiment in a line: Cell counting analysis (trypan blue) of living INS-1 cells. The format is cell-based, rat. The settings on record: for decrease in INS-1 cell survival compared to the control: FIG. 4; for decrease in survival of INS-1 cells compared to control: treated alone. The method, then:
The rat insulin-secreting cell line INS-1 was maintained in RPMI-1640 medium containing 10% heat-inactivated FBS (fetal bovine serum), 100 units/ml of penicillin and 100 μg/ml of streptomycin at 37° C. under the conditions of 95% humidity and 5% CO2.
One day before treatment with reagent or CLCE, INS-1 cells were cultured in a 24-well plate at a concentration of 1×10^5 cells/well in a volume of 500 μL. The INS-1 cells were treated with the indicated concentrations of reagent (Dex, LY294002, IL-1β, STZ, TG or TN) and/or CLCE for the indicated time. At each point of time, the cells were stained with trypan blue dye, and the living INS-1 cells were counted under a microscope. The cell counting was repeated three times. Data were expressed as the mean of three independent experiments.

Take `CN(N=O)C(=O)N[C@H]1C(O)O[C@H](CO)[C@@H](O)[C@@H]1O` (mixture of isomers) [STZ, streptozotocin]: the “decrease in INS-1 cell survival compared to the control” value (from here on “decrease in INS-1 cell survival”) (treated alone for 24 hours) is about 82%. Regarding `C[C@@H]1C[C@H]2[C@@H]3CCC4=CC(=O)C=C[C@]4(C)[C@@]3(F)[C@@H](O)C[C@]2(C)[C@@]1(O)C(=O)CO` [Dex, dexamethasone], the “decrease in survival rate of INS-1 cells” value (treated alone for 24 hours, FIG. 1A) was “about 50%”. Further, the “decrease in survival of INS-1 cells compared to control” value (FIG. 3) is listed as “about 55%”. With `O=c1cc(N2CCOCC2)oc2c(-c3ccccc3)cccc12` [LY294002], the “degree of the decrease in survival of INS-1 cells” value (combination of Dex and LY294002, FIG. 3) is 75%. Besides, the “decrease in survival of INS-1 cells compared to control” value (FIG. 3) is on record as “about 24%”.

In the case of `C/C=C(/C)C(=O)O[C@H]1C(C)=C2[C@H]([C@@H]1OC(=O)CCCCCCC)[C@@](C)(OC(C)=O)C[C@H](OC(=O)CCC)[C@@]1(O)[C@H]2OC(=O)[C@@]1(C)O` [TG, thapsigargin], where the note is “treated alone for 24 hours”, the “decrease in INS-1 cell survival” value is about 88%.

For interleukin-1β [IL-1β], under “treated alone for 24 hours”, the “decrease in INS-1 cell survival” value is “about 45%”. With tunicamycin [TN], the “decrease in INS-1 cell survival” value (treated alone for 24 hours) is about 50%.
